# Experimental data reported in patent publication US11590116B2 (THERAVANCE BIOPHARMA R&D IP, LLC, priority 2019, dated 2023).
# How the values were obtained:
# [1] = target: T1, recombinant human ALK5 (TGF-βR1) protein (Homo sapiens, UniProt P36897); test: Biochemical ALK5 (TGF-βR1) assay to measure pKi (LANCE Ultra ULight kinase assay); settings: apparent pKi from pIC50 by Cheng-Prusoff, read-out: ALK5 pKi (converted)
# T1 construct: purchased Life Technologies PR9075A
# T1 sequence (P36897 34-503): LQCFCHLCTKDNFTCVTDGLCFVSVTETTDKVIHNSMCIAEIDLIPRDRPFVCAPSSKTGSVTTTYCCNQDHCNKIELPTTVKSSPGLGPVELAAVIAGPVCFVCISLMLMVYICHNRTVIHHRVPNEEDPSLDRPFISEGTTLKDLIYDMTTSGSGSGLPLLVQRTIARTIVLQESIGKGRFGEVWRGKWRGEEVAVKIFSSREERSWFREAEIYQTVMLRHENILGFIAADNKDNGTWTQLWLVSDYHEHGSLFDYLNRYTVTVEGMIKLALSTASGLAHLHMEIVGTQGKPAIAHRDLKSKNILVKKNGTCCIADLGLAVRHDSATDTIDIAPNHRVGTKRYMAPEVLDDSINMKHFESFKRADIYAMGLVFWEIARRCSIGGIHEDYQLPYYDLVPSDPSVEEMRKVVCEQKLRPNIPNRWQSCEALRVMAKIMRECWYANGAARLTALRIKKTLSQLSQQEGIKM
# Procedure, shortened: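 After a 60 min room-temperature preincubation of ALK5 with compound, phosphorylation proceeds 60 min at 37 °C on ATP addition (125 μM as 5× stock). Detection: Eu-labelled phospho-Thr1342 Topo IIα antibody in EDTA buffer, pH 7.0; emission 665 nm.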
# [2] = test system: TGF-β-stimulated SMAD3 phosphorylation in BEAS-2B cells; test: Cellular ALK5 potency assay, inhibition of TGF-β stimulated pSMAD3 formation in BEAS-2B cells; format: cell-based; settings: Homo sapiens; inhibition of TGF-β stimulated pSMAD3 formation, BEAS-2B cells; read-out: BEAS2B pIC50 (converted)
# Procedure, shortened: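 AlphaLISA pSMAD3 read-out, beads incubated overnight. Human BEAS-2B cells: 1 h compound preincubation (37 °C, 5% CO2), then 30 min TGF-β at 10 ng/mL final, immediate lysis. Values are pIC50 relative to stimulated, compound-free baseline.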
SMILES,Ki [1],IC50 [2]
"Cc1cccc(-c2[nH]cnc2-c2ccc3ncc(Nc4ccc(N5CCN(C)CC5)cn4)cc3n2)n1 [Compound 653, N-(5-(4-methylpiperazin-1-yl)pyridin-2-yl)-6-(5-(6-methylpyridin-2-yl)-1H imidazol-4-yl)-1,5-naphthyridin-3-amine]",0.0398 to 0.316 nM,25.1 to 158 nM
"Cc1cccc(-c2n[nH]cc2-c2ccc3ncc(N4CCN(C)CC4)cc3n2)n1 [Compound 654, 7-(4-methylpiperazin-1-yl)-2-[3-(6-methyl-2-pyridyl)-1H-pyrazol-4-yl]-1,5-naphthyridine]",0.0398 to 0.316 nM,25.1 to 158 nM
"Cc1cccc(-c2n[nH]cc2-c2ccc3ncc(-c4cnc5n4CCCN5)cc3n2)n1 [Compound 655, 2-[3-(6-methyl-2-pyridyl)-1H-pyrazol-4-yl]-7-(5,6,7,8-tetrahydroimidazo[1,2-a]pyrimidin-3-yl)-1,5-naphthyridine]",0.0398 to 0.316 nM,25.1 to 158 nM
"Cc1cccc(-c2nc[nH]c2-c2ccc3ncc(-c4cnn([C@H]5CCCC[C@@H]5N)c4)cc3c2)n1 [Compound 656, (1S,2S)-2-[4-[6-[4-(6-methyl-2-pyridyl)-1H-imidazol-5-yl]-3-quinolyl]pyrazol-1-yl]cyclohexanamine]",< 0.0316 nM,< 20 nM
"Cc1cccc(-c2nc3ccccn3c2-c2ccc3ncc(Br)cc3n2)n1 [Compound 657, 7-bromo-2-[2-(6-methyl-2-pyridyl)imidazo[1,2-a]pyridin-3-yl]-1,5-naphthyridine]",0.0398 to 0.316 nM,25.1 to 158 nM
"Cc1nc(-c2n[nH]cc2-c2ccc3ncc(-c4cn5c(n4)NCC5)cc3n2)ccc1F [Compound 658, 7-(2,3-dihydro-1H-imidazo[1,2-a]imidazol-6-yl)-2-[3-(5-fluoro-6-methyl-2-pyridyl)-1H-pyrazol-4-yl]-1,5-naphthyridine]",< 0.0316 nM,< 20 nM
"COC(=O)CC1CNCCN1CCNc1cnc2ccc(-c3nc[nH]c3-c3cccc(C)n3)cc2c1 (stereo not shown) [Compound 659, methyl 2-[1-[2-[[6-[5-(6-methyl-2-pyridyl)-1H-imidazol-4-yl]-3-quinolyl]amino]ethyl]piperazin-2-yl]acetate]",0.0398 to 0.316 nM,200 to 1260 nM
"Cc1cccc(-c2nc3ccccn3c2-c2ccc3ncc(-c4cnn(CCN)c4)cc3n2)n1 [Compound 660, 2-[4-[6-[2-(6-methyl-2-pyridyl)imidazo[1,2-a]pyridin-3-yl]-1,5-naphthyridin-3-yl]pyrazol-1-yl]ethanamine]",0.0398 to 0.316 nM,25.1 to 158 nM
"Cc1nc(-c2n[nH]cc2-c2ccc3ncc(N4CCNCC4)cc3n2)ccc1F [Compound 661, 2-[3-(5-fluoro-6-methyl-2-pyridyl)-1H-pyrazol-4-yl]-7-piperazin-1-yl-1,5-naphthyridine]",0.0398 to 0.316 nM,< 20 nM
"CCN1CCC(N(C)c2cnc3ccc(-c4c[nH]nc4-c4cccc(C)n4)nc3c2)CC1 [Compound 662, N-(1-ethyl-4-piperidyl)-N-methyl-6-[3-(6-methyl-2-pyridyl)-1H-pyrazol-4-yl]-1,5-naphthyridin-3-amine]",0.0398 to 0.316 nM,25.1 to 158 nM
"Cc1cccc(-c2[nH]cnc2-c2ccc3ncc(-c4ccc(C(=O)OC5CNC5)cc4)cc3c2)n1 [Compound 663, azetidin-3-yl 4-[6-[5-(6-methyl-2-pyridyl)-1H-imidazol-4-yl]-3-quinolyl]benzoate]",0.0398 to 0.316 nM,25.1 to 158 nM
"Cc1cccc(-c2n[nH]cc2-c2ccc3ncc(Nc4ccc(N5CCN(C)CC5)cc4)cc3c2)n1 [Compound 664, N-(4-(4-methylpiperazin-1-yl)phenyl)-6-(3-(6-methylpyridin-2-yl)-1H-pyrazol-4-yl)quinolin-3-amine]",0.0398 to 0.316 nM,25.1 to 158 nM
"Cc1cccc(-c2[nH]cnc2-c2ccc3ncc(-c4cncc(C(=O)OCC5CNC5)c4)cc3c2)n1 [Compound 665, azetidin-3-ylmethyl 5-[6-[5-(6-methyl-2-pyridyl)-1H-imidazol-4-yl]-3-quinolyl]pyridine-3-carboxylate]",0.0398 to 0.316 nM,200 to 1260 nM
"Cc1cccc(-c2n[nH]cc2-c2ccc3ncc(Nc4ccc(N5CCN(C)CC5)cn4)cc3c2)n1 [Compound 666, N-[5-(4-methylpiperazin-1-yl)-2-pyridyl]-6-[3-(6-methyl-2-pyridyl)-1H-pyrazol-4-yl]quinolin-3-amine]",0.0398 to 0.316 nM,25.1 to 158 nM
"Cc1cccc(-c2[nH]cnc2-c2ccc3ncc(Nc4cnn(CCC5CCNCC5)c4)cc3c2)n1 [Compound 667, 6-[5-(6-methyl-2-pyridyl)-1H-imidazol-4-yl]-N-[1-[2-(4-piperidyl)ethyl]pyrazol-4-yl]quinolin-3-amine]",0.0398 to 0.316 nM,200 to 1260 nM
"Cc1cccc(-c2n[nH]cc2-c2ccc3ncc(NCCN4CCNCC4)cc3n2)n1 [Compound 668, 6-[3-(6-methyl-2-pyridyl)-1H-pyrazol-4-yl]-N-(2-piperazin-1-ylethyl)-1,5-naphthyridin-3-amine]",< 0.0316 nM,200 to 1260 nM
"Cc1cccc(-c2n[nH]cc2-c2ccc3ncc(-c4cnn(C5COC5)c4)cc3n2)n1 [Compound 669, 2-[3-(6-methyl-2-pyridyl)-1H-pyrazol-4-yl]-7-[1-(oxetan-3-yl)pyrazol-4-yl]-1,5-naphthyridine]",< 0.0316 nM,< 20 nM
"Cc1cccc(-c2[nH]cnc2-c2ccc3ncc(NCCN4CCC(C(=O)O)CC4)cc3c2)n1 [Compound 670, 1-[2-[[6-[5-(6-methyl-2-pyridyl)-1H-imidazol-4-yl]-3-quinolyl]amino]ethyl]piperidine-4-carboxylic acid]",0.0398 to 0.316 nM,200 to 1260 nM
"Cc1cccc(-c2n[nH]cc2-c2ccc3ncc(-c4nc(CCN)c(C)[nH]4)cc3n2)n1 [Compound 671, 2-[5-methyl-2-[6-[3-(6-methyl-2-pyridyl)-1H-pyrazol-4-yl]-1,5-naphthyridin-3-yl]-1H-imidazol-4-yl]ethanamine]",0.0398 to 0.316 nM,200 to 1260 nM
"CNCC1CN(c2cnc3ccc(-c4c[nH]nc4-c4cccc(C)n4)nc3c2)C1 [Compound 672, N-methyl-1-[1-[6-[3-(6-methyl-2-pyridyl)-1H-pyrazol-4-yl]-1,5-naphthyridin-3-yl]azetidin-3-yl]methanamine]",0.0398 to 0.316 nM,25.1 to 158 nM
"COC(=O)Cn1cc(-c2cnc3ccc(-c4c[nH]nc4-c4cccc(C)n4)nc3c2)cn1 [Compound 673, methyl 2-[4-[6-[3-(6-methyl-2-pyridyl)-1H-pyrazol-4-yl]-1,5-naphthyridin-3-yl]pyrazol-1-yl]acetate]",0.0398 to 0.316 nM,25.1 to 158 nM
"Cc1nc(-c2n[nH]cc2-c2ccc3ncc(-c4cccn(C)c4=O)cc3n2)ccc1F [Compound 674, 3-[6-[3-(5-fluoro-6-methyl-2-pyridyl)-1H-pyrazol-4-yl]-1,5-naphthyridin-3-yl]-1-methyl-pyridin-2-one]",0.0398 to 0.316 nM,< 20 nM
"CNC(=O)c1cnc2ccc(-c3cn[nH]c3-c3cccc(C)n3)nc2c1 [Compound 675, N-methyl-6-[5-(6-methyl-2-pyridyl)-lH-pyrazol-4-yl]-1,5-naphthyridine-3-carboxamide]",0.0398 to 0.316 nM,25.1 to 158 nM
"Cc1cccc(-c2nc3ncccn3c2-c2ccc3ncc(-c4cn[nH]c4)cc3n2)n1 [Compound 676, 2-(2-(6-methylpyridin-2-yl)imidazo[1,2-a]pyrimidin-3-yl)-7-(1H-pyrazol-4-yl)-1,5-naphthyridine]",0.0398 to 0.316 nM,25.1 to 158 nM
"Cc1cccc(-c2[nH]ncc2-c2ccc3ncc(-c4nnco4)cc3n2)n1 [Compound 677, 2-[6-[5-(6-methyl-2-pyridyl)-1H-pyrazol-4-yl]-1,5-naphthyridin-3-yl]-1,3,4-oxadiazole]",0.0398 to 0.316 nM,25.1 to 158 nM
"Cc1cccc(-c2n[nH]cc2-c2ccc3ncc(-c4ccc5c(n4)CCNC5)cc3n2)n1 [Compound 678, 2-[3-(6-methyl-2-pyridyl)-1H-pyrazol-4-yl]-7-(5,6,7,8-tetrahydro-1,6-naphthyridin-2-yl)-1,5-naphthyridine]",< 0.0316 nM,25.1 to 158 nM
"Cc1cccc(-c2[nH]cnc2-c2ccc3ncc(NC[C@@H]4CCCN4)cc3c2)n1 [Compound 679, 6-[5-(6-methyl-2-pyridyl)-1H-imidazol-4-yl]-N-[[(2S)-pyrrolidin-2-yl]methyl]quinolin-3-amine]",0.0398 to 0.316 nM,200 to 1260 nM
"Cc1cccc(-c2n[nH]cc2-c2ccc3ncc(-c4cn(-c5ccccn5)nn4)cc3n2)n1 [Compound 680, 2-[3-(6-methyl-2-pyridyl)-1H-pyrazol-4-yl]-7-[1-(2-pyridyl)triazol-4-yl]-1,5-naphthyridine]",0.398 to 3.16 nM,200 to 1260 nM
"Cc1cccc(-c2n[nH]cc2-c2ccc3ncc(-c4cnc5n4CCN5)cc3n2)n1 [Compound 681, 7-(6,7-dihydro-5H-imidazo[1,2-a]imidazol-3-yl)-2-[3-(6-methyl-2-pyridyl)-1H-pyrazol-4-yl]-1,5-naphthyridine]",< 0.0316 nM,25.1 to 158 nM
